# From PubChem BioAssay (NCI)
#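 48-hour exposure; five concentrations; linearly interpolated endpoints. GI50 = concentration required for 50% inhibition of growth. TGI: total growth inhibition.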
# How the values were obtained:
# Test in all cases: NCI tumour cell line growth inhibition, 48 h
# DU-145 prostate = test system: DU-145 prostate
# NCI-H460 lung = test system: NCI-H460 lung
# HOP-62 NSCLC = test system: HOP-62 NSCLC
# SK-OV-3 ovarian = test system: SK-OV-3 ovarian
# HCC-2998 colon = test system: HCC-2998 colon
# EKVX NSCLC = test system: EKVX NSCLC
# NCI/ADR-RES ovarian = test system: NCI/ADR-RES ovarian
# COLO 205 colon = test system: COLO 205 colon
# U251 CNS = test system: U251 CNS
# HL-60(TB) leukemia = test system: HL-60(TB) leukemia
# UACC-62 melanoma = test system: UACC-62 melanoma
# A549 NSCLC = test system: A549 NSCLC
# SK-MEL-28 melanoma = test system: SK-MEL-28 melanoma
# K-562 leukemia = test system: K-562 leukemia
# MDA-MB-231 breast = test system: MDA-MB-231 breast
# MDA-N = test system: MDA-N
# SF-295 CNS = test system: SF-295 CNS
# HS 578T breast = test system: HS 578T breast
# SW-620 colon = test system: SW-620 colon
# NCI-H23 lung = test system: NCI-H23 lung
# MALME-3M melanoma = test system: MALME-3M melanoma
# SK-MEL-5 melanoma = test system: SK-MEL-5 melanoma
# IGROV1 ovarian = test system: IGROV1 ovarian
# NCI-H226 lung = test system: NCI-H226 lung
# SNB-75 CNS = test system: SNB-75 CNS
# MOLT-4 leukemia = test system: MOLT-4 leukemia
# NCI-H522 lung = test system: NCI-H522 lung
# SF-539 CNS = test system: SF-539 CNS
# BT-549 breast = test system: BT-549 breast
# HT29 colon = test system: HT29 colon
# HCT-15 colon = test system: HCT-15 colon
# HCT-116 colon = test system: HCT-116 colon
# CCRF-CEM leukemia = test system: CCRF-CEM leukemia
# SK-MEL-2 melanoma = test system: SK-MEL-2 melanoma
# SN12C renal = test system: SN12C renal
# MDA-MB-435 = test system: MDA-MB-435
# A498 renal = test system: A498 renal
# SF-268 CNS = test system: SF-268 CNS
# RPMI-8226 leukemia = test system: RPMI-8226 leukemia
# LOX IMVI melanoma = test system: LOX IMVI melanoma
# RXF 393 renal = test system: RXF 393 renal
# ACHN renal = test system: ACHN renal
# HOP-92 NSCLC = test system: HOP-92 NSCLC
# PC-3 prostate = test system: PC-3 prostate
# OVCAR-4 ovarian = test system: OVCAR-4 ovarian
# SNB-19 CNS = test system: SNB-19 CNS
# 786-0 renal = test system: 786-0 renal
# TK-10 renal = test system: TK-10 renal
# KM12 colon = test system: KM12 colon
# M14 melanoma = test system: M14 melanoma
# MCF7 breast = test system: MCF7 breast
# OVCAR-3 ovarian = test system: OVCAR-3 ovarian
# CAKI-1 renal = test system: CAKI-1 renal
# OVCAR-8 ovarian = test system: OVCAR-8 ovarian
# T-47D breast = test system: T-47D breast
# OVCAR-5 ovarian = test system: OVCAR-5 ovarian
# UACC-257 melanoma = test system: UACC-257 melanoma
# UO-31 renal = test system: UO-31 renal
# SR leukemia = test system: SR leukemia
smiles,measurement,setting,value
O=C1C=C(c2ccccc2)OC1C1Sc2ccccc2NC1=O (stereo not given),TGI,DU-145 prostate,> 81 µM
same,TGI,NCI-H460 lung,> 20.9 µM
same,TGI,HOP-62 NSCLC,> 19.8 µM
same,TGI,SK-OV-3 ovarian,> 33.8 µM
same,TGI,HCC-2998 colon,> 31.3 µM
same,TGI,EKVX NSCLC,> 100 µM
same,TGI,NCI/ADR-RES ovarian,> 80.9 µM
same,TGI,COLO 205 colon,18.5 µM
same,TGI,U251 CNS,> 43.3 µM
same,TGI,HL-60(TB) leukemia,13.6 µM
same,TGI,UACC-62 melanoma,> 49.3 µM
same,TGI,A549 NSCLC,> 44.7 µM
same,TGI,SK-MEL-28 melanoma,> 100 µM
same,TGI,K-562 leukemia,> 28.3 µM
same,TGI,MDA-MB-231 breast,> 57.1 µM
same,TGI,MDA-N,> 100 µM
same,TGI,SF-295 CNS,27 µM
same,TGI,HS 578T breast,> 100 µM
same,TGI,SW-620 colon,> 100 µM
same,TGI,NCI-H23 lung,> 31.5 µM
same,TGI,MALME-3M melanoma,> 100 µM
same,TGI,SK-MEL-5 melanoma,38.2 µM
same,TGI,IGROV1 ovarian,> 100 µM
same,TGI,NCI-H226 lung,> 83.3 µM
same,TGI,SNB-75 CNS,50.3 µM
same,TGI,MOLT-4 leukemia,> 40.1 µM
same,TGI,NCI-H522 lung,33.8 µM
same,TGI,SF-539 CNS,> 100 µM
same,TGI,BT-549 breast,> 100 µM
same,TGI,HT29 colon,> 100 µM
same,TGI,HCT-15 colon,> 100 µM
same,TGI,HCT-116 colon,24.6 µM
same,TGI,CCRF-CEM leukemia,> 24.4 µM
same,TGI,SK-MEL-2 melanoma,> 41.1 µM
same,TGI,SN12C renal,68.8 µM
same,TGI,MDA-MB-435,> 100 µM
same,TGI,A498 renal,> 31.5 µM
same,TGI,SF-268 CNS,> 100 µM
same,TGI,RPMI-8226 leukemia,12.5 µM
same,TGI,LOX IMVI melanoma,> 64.6 µM
same,TGI,RXF 393 renal,> 94.4 µM
same,TGI,ACHN renal,> 62.6 µM
same,TGI,HOP-92 NSCLC,> 87 µM
same,TGI,PC-3 prostate,> 54.9 µM
same,TGI,OVCAR-4 ovarian,> 100 µM
same,TGI,SNB-19 CNS,> 82.8 µM
same,TGI,786-0 renal,> 66.3 µM
same,TGI,TK-10 renal,> 27.9 µM
same,TGI,KM12 colon,> 100 µM
same,TGI,M14 melanoma,35.6 µM
same,TGI,MCF7 breast,> 23.6 µM
same,TGI,OVCAR-3 ovarian,18.9 µM
same,TGI,CAKI-1 renal,> 100 µM
same,TGI,OVCAR-8 ovarian,> 46.4 µM
same,TGI,T-47D breast,> 100 µM
same,TGI,OVCAR-5 ovarian,> 100 µM
same,TGI,UACC-257 melanoma,> 24.4 µM
same,TGI,UO-31 renal,76.1 µM
COc1ccc(Oc2nc3cc(N)cc(N)c3nc2-c2ccccc2)cc1,GI50,DU-145 prostate,69.4 µM
same,TGI,DU-145 prostate,> 100 µM
same,GI50,NCI-H460 lung,30.6 µM
same,TGI,NCI-H460 lung,> 100 µM
same,TGI,HOP-62 NSCLC,40.8 µM
same,GI50,SK-OV-3 ovarian,25.5 µM
same,TGI,SK-OV-3 ovarian,55 µM
same,GI50,EKVX NSCLC,24.7 µM
same,TGI,EKVX NSCLC,63.1 µM
same,GI50,NCI/ADR-RES ovarian,59.9 µM
same,TGI,NCI/ADR-RES ovarian,> 100 µM
same,GI50,COLO 205 colon,> 100 µM
same,TGI,COLO 205 colon,> 100 µM
same,GI50,U251 CNS,26.6 µM
same,TGI,U251 CNS,> 100 µM
same,GI50,HL-60(TB) leukemia,15.4 µM
same,TGI,HL-60(TB) leukemia,> 100 µM
same,GI50,UACC-62 melanoma,63.5 µM
same,TGI,UACC-62 melanoma,> 100 µM
same,GI50,A549 NSCLC,37.4 µM
same,TGI,A549 NSCLC,> 100 µM
same,GI50,SK-MEL-28 melanoma,19.6 µM
same,TGI,SK-MEL-28 melanoma,49 µM
same,GI50,K-562 leukemia,26.1 µM
same,TGI,K-562 leukemia,> 100 µM
same,GI50,MDA-MB-231 breast,20.4 µM
same,TGI,MDA-MB-231 breast,64.5 µM
same,GI50,MDA-N,35.2 µM
same,TGI,MDA-N,> 100 µM
same,GI50,SF-295 CNS,23.4 µM
same,TGI,SF-295 CNS,52.4 µM
same,GI50,HS 578T breast,24.3 µM
same,TGI,HS 578T breast,> 100 µM
same,GI50,SW-620 colon,88.2 µM
same,TGI,SW-620 colon,> 100 µM
same,GI50,NCI-H23 lung,25.2 µM
same,TGI,NCI-H23 lung,> 100 µM
same,TGI,MALME-3M melanoma,> 100 µM
same,GI50,SK-MEL-5 melanoma,44.6 µM
same,TGI,SK-MEL-5 melanoma,> 100 µM
same,GI50,IGROV1 ovarian,24.9 µM
same,TGI,IGROV1 ovarian,> 100 µM
same,GI50,MOLT-4 leukemia,5.31 µM
same,TGI,MOLT-4 leukemia,93.9 µM
same,GI50,SR leukemia,18.5 µM
same,TGI,SR leukemia,> 100 µM
same,GI50,NCI-H522 lung,31.4 µM
same,TGI,NCI-H522 lung,> 100 µM
same,GI50,SF-539 CNS,23.3 µM
same,TGI,SF-539 CNS,61.1 µM
same,GI50,BT-549 breast,32.1 µM
same,TGI,BT-549 breast,> 100 µM
same,GI50,HT29 colon,39.9 µM
same,TGI,HT29 colon,> 100 µM
same,GI50,HCT-15 colon,52.1 µM
same,TGI,HCT-15 colon,> 100 µM
same,GI50,HCT-116 colon,28.7 µM
same,TGI,HCT-116 colon,75.1 µM
same,GI50,CCRF-CEM leukemia,2.97 µM
same,TGI,CCRF-CEM leukemia,12.6 µM
same,GI50,SK-MEL-2 melanoma,25.1 µM
same,TGI,SK-MEL-2 melanoma,87.5 µM
same,GI50,SN12C renal,50.1 µM
same,TGI,SN12C renal,> 100 µM
same,GI50,MDA-MB-435,40.6 µM
same,TGI,MDA-MB-435,> 100 µM
same,GI50,A498 renal,49.3 µM
same,TGI,A498 renal,> 100 µM
same,GI50,SF-268 CNS,20.8 µM
same,TGI,SF-268 CNS,> 100 µM
same,TGI,RPMI-8226 leukemia,71.4 µM
same,GI50,LOX IMVI melanoma,34.7 µM
same,TGI,LOX IMVI melanoma,> 100 µM
same,GI50,RXF 393 renal,19.9 µM
same,TGI,RXF 393 renal,73.9 µM
same,GI50,ACHN renal,36.4 µM
same,TGI,ACHN renal,> 100 µM
same,GI50,PC-3 prostate,15 µM
same,TGI,PC-3 prostate,> 100 µM
same,GI50,OVCAR-4 ovarian,3.75 µM
same,TGI,OVCAR-4 ovarian,24.6 µM
same,GI50,SNB-19 CNS,65 µM
same,TGI,SNB-19 CNS,> 100 µM
same,GI50,786-0 renal,24.4 µM
same,TGI,786-0 renal,> 100 µM
same,GI50,TK-10 renal,53.5 µM
same,TGI,TK-10 renal,> 100 µM
same,GI50,KM12 colon,37.4 µM
same,TGI,KM12 colon,> 100 µM
same,GI50,M14 melanoma,> 100 µM
same,TGI,M14 melanoma,> 100 µM
same,GI50,MCF7 breast,48.2 µM
same,TGI,MCF7 breast,> 100 µM
same,GI50,OVCAR-3 ovarian,14.9 µM
same,TGI,OVCAR-3 ovarian,72.7 µM
same,GI50,CAKI-1 renal,79.6 µM
same,TGI,CAKI-1 renal,> 100 µM
same,GI50,OVCAR-8 ovarian,32.3 µM
same,TGI,OVCAR-8 ovarian,> 100 µM
same,GI50,T-47D breast,15.3 µM
same,TGI,T-47D breast,97.3 µM
same,GI50,OVCAR-5 ovarian,94.5 µM
same,TGI,OVCAR-5 ovarian,> 100 µM
same,GI50,UACC-257 melanoma,> 100 µM
same,TGI,UACC-257 melanoma,> 100 µM
same,GI50,UO-31 renal,28.5 µM
same,TGI,UO-31 renal,> 100 µM
